Laboratory results: patent US20160264523A1, “CONJUGATE COMPRISING FOLIC ACID AND INDOLE-3-CARBINOL FOR MEDICAL USE” (Dom Terry International S.R.L., priority 2013, published 2016)

What was measured:
[1] = ABTS cationic free radical discoloration assay (antioxidant activity); design: key: TEAC: mM Trolox equivalent to 1 mM tested compound; settings: TEAC = concentration of Trolox having the same antioxidant ability of the tested compound at 1 mM
Excerpt: The cationic free radical ABTS+° discoloration assay assesses the scavenging ability of an antioxidant against a preformed cationic radical (ABTS^+°) compared to Trolox, a hydrosoluble analogue of Vitamin E.

[2] = tested on: inducible nitric oxide synthetase (iNos) activity in J774A.1 macrophage cells stimulated by LPS; experiment: Anti-inflammatory activity: production of nitrites and release of NO; type: cell-based; settings: 24 h, J774A.1 macrophages stimulated with LPS of E. coli, n=5
Protocol: I3C, conjugate derivatives free from folic acid (PEG-I3C), and folate conjugates F-PEG-I3C, F-PEG-AD-(I3C)2, and F-PEG-βGlu-(I3C)2 were tested for their anti-inflammatory activity against the inducible nitric oxide synthetase (iNos) activity in J774A.1 macrophage cells stimulated by LPS and assessing the production of nitrites and the release of NO.
The PEG-I3C conjugates, free from folic acid, show a lower activity, thus indicating a real targeting effect of the folic acid molecule on the activated macrophage cells. […] The data are expressed as the inhibition percentage±s.e.m. vs the production of nitrites during 24 h by J774A.1 macrophage cells treated with LPS alone.

[3] = tested on: HT-29 (human colon adenocarcinoma); experiment: Cytotoxic activity, cell growth inhibition; type: cell-based; settings: HT-29 cells; n=4; read-out: IC50, concentration that inhibits the 50% cell growth compared to control cultures
Protocol: (§1) The studies of cytotoxic activity were carried out on three human cell lines: HT-29 (human colon adenocarcinoma), MCF-7 (human breast adenocarcinoma), and KB-3-1 (human oropharyngeal carcinoma), which cells are characterized by an overexpression of folic acid (FR+) receptors. […], conjugates free from folic acid (PEG-[…]), and the folate conjugates F-PEG-I3C, F-PEG-AD-(I3C)2, and F-PEG-βGlu-(I3C)2 were tested.

[4] = tested on: KB-3-1 (human oropharyngeal carcinoma); experiment: Cytotoxic activity, cell growth inhibition; type: cell-based; settings: KB-3-1 cells (FR+); n=4; read-out: IC50, concentration that inhibits the 50% cell growth compared to control cultures
Protocol: as §1

[5] = tested on: MCF-7 (human breast adenocarcinoma); experiment: Cytotoxic activity, cell growth inhibition; type: cell-based; settings: MCF-7 cells; n=4; read-out: IC50, concentration that inhibits the 50% cell growth compared to control cultures
Protocol: as §1

[6] = tested on: collagen-induced platelet aggregation; experiment: Platelet antiaggregating activity on platelet-enriched plasma; type: cell-based
Protocol: The platelet anti-aggregating effect induced by a series of mediators was tested on platelet-enriched plasma samples.

[7] = tested on: tumor cells that are positive to the estrogen receptor; settings: a number of in vitro and in vivo studies (background); cited from earlier work

In the case of O=C(O)c1ccc(O)c(O)c1 [3,4-Dihydroxybenzoic acid], the “ABTS assay (TEAC)” value [1] is reported as 4.6 ± 0.18.
For C[C@@H]1O[C@@H](O[C@@H]2[C@@H](O)[C@H](OCCc3ccc(O)c(O)c3)O[C@H](CO)[C@H]2OC(=O)/C=C/c2ccc(O)c(O)c2)[C@H](O)[C@H](O)[C@H]1O [Verbascoside], the “ABTS assay (TEAC)” value [1] was 5.3 ± 0.22.
For PEG550-Indole-3-Carbinol [PEG550-I3C], the “Nitrites release inhibition (% vs LPS)” value ([2]; 1 μg/mL) was 12.5 ± 0.8%, the “Nitrites release inhibition (% vs LPS)” value ([2]; 10 μg/mL) was 34.1 ± 1.2 % and the “Nitrites release inhibition (% vs LPS)” value ([2]; 100 μg/mL) was 72.5 ± 2.4 %. For the same molecule, the “ABTS assay (TEAC)” value [1] was 4.2 ± 0.26.
In the case of O=C1C[C@@H](c2ccc(O)cc2)Oc2cc(O)cc(O)c21 [Naringenin], the “ABTS assay (TEAC)” value [1] is reported as 1.4 ± 0.03.
In the case of “Indole-3-Carbinol-PEG600-Indole-3-Carbinol [I3C-PEG600-I3C]”, the “Nitrites release inhibition (% vs LPS)” value ([2]; 1 μg/mL) is reported as 32.2 ± 1.4 %, the “Nitrites release inhibition (% vs LPS)” value ([2]; 10 μg/mL) is reported as 45.7 ± 1.7 % and the “Nitrites release inhibition (% vs LPS)” value ([2]; 100 μg/mL) is reported as 84.3 ± 3.8 %. The “ABTS assay (TEAC)” value [1] was 5.8 ± 0.41.
For C[C@@H]1O[C@@H](O[C@H]2[C@H](Oc3cc(O)c4c(c3)O[C@H](c3ccc(O)cc3)CC4=O)O[C@H](CO)[C@@H](O)[C@@H]2O)[C@H](O)[C@H](O)[C@H]1O [Naringin], the “ABTS assay (TEAC)” value [1] was 0.5 ± 0.01.
For COc1ccc([C@@H]2CC(=O)c3c(O)cc(O[C@@H]4O[C@H](CO[C@@H]5O[C@@H](C)[C@H](O)[C@@H](O)[C@H]5O)[C@@H](O)[C@H](O)[C@H]4O)cc3O2)cc1O [Hesperidin], the “ABTS assay (TEAC)” value [1] was 0.5 ± 0.09.
For Tocopherol, the “ABTS assay (TEAC)” value [1] was 2.1 ± 0.07.
For O=c1cc(-c2ccc(O)cc2)oc2cc(O)cc(O)c12 [Apigenin], the “ABTS assay (TEAC)” value [1] was 0.2 ± 0.01.
With O=c1cc(-c2ccc(O)c(O)c2)oc2cc(O)cc(O)c12 [Luteolin] the “ABTS assay (TEAC)” value [1] was 2.8 ± 0.09.
In the case of O=C(O)/C=C/c1ccc(O)c(O)c1 [Caffeic acid], the “ABTS assay (TEAC)” value [1] is reported as 5.8 ± 0.12.
OCc1c[nH]c2ccccc12 [Compound I3C, Indole-3-carbinol] showed an IC50 [3] of 45.1 ± 1.7 µM, an IC50 [4] of 93 ± 2.1 µM and an IC50 [5] of 30 ± 0.7 µM. The “Nitrites release inhibition (% vs LPS)” value ([2]; 1 μg/mL) was 10.0 ± 1.1%, the “Nitrites release inhibition (% vs LPS)” value ([2]; 10 μg/mL) was 20.0 ± 0.9 % and the “Nitrites release inhibition (% vs LPS)” value ([2]; 100 μg/mL) was 70.1 ± 1.2 %. The platelet aggregation inhibition ([6]; 3 μM) was 70%, the platelet aggregation inhibition ([6]; 6 μM) was 73% and the platelet aggregation inhibition ([6]; 12 μM) was 78%. The platelet aggregation inhibition ([6]; 25 μM) was 79%, the “ABTS assay (TEAC)” value [1] was 3.8 ± 0.12 and the “inhibition of the development of tumor cells positive to the estrogen receptor” value [7] was “up to 90%”.
